Experimental data published in patent US20100075907A1, “NEUROMEDIN U RECEPTOR AGONISTS AND USES THEREOF” (priority 2006, published 2010).
Non-standard residues stand in square brackets, D forms with d. Residues, ends and D or L forms follow the SMILES beside them. *: point of attachment. Succinimide(1-Et,3-yl) = CCN1C(=O)CC(*)C1=O

Legend:
[1] = biological target: T1, rat NMUR1-TTG (Rattus norvegicus, UniProt Q9JJI5); assay: FLIPR calcium mobilization assay, rat NMUR1-TTG; assay type: cell-based; set-up: expressed in transfected cells; host or cells: FLP-In CHO or HEK-293 FLP-In cells (pcDNA5)
T1 sequence (Q9JJI5 1-425): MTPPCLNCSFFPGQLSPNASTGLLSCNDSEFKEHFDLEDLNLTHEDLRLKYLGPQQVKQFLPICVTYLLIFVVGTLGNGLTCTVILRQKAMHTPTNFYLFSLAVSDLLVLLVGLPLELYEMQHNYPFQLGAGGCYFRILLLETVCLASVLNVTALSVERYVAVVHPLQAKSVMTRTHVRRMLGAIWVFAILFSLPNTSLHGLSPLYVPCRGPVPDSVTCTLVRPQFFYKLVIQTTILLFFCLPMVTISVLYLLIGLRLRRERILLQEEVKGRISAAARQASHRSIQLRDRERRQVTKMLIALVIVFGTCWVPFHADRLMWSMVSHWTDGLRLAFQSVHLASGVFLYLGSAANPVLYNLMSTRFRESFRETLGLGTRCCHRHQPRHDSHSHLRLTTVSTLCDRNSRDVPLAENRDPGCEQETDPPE
Excerpt: Human, mouse or rat cDNAs encoding NMUR1 or NMUR2 (as described in Howard et al. Nature 406: 70-74 (2000) were subcloned in pcDNA5 (Invitrogen) and transfected into FLP-In CHO cells and HEK-293 FLP-In cells purchased from Invitrogen (Carlsbad, Calif.) using lipofectamine (Invitrogen). The Flp-In system allows integration and expression of a particular gene of interest at a specific genomic location utilizing the Flp recombinase from yeast. The transfected cells were selected by growth in medium containing 200 μg/mL hygromycin (Invitrogen). Populations were frozen at early passage numbers, and these stocks were used for further studies. Stable clones that expressed the mRNAs were identified functionally by FLIPR as well as by RT-PCR. […] Two different rodent NMUR1 cell lines were thus generated: one with the codon as predicted from the genomic databases and another cell line with an engineered methionine (ATG) as the start codon. Additionally, stable cell lines expressing the human receptors were generated in HEK-293/aeq17 cells which stably express the aequorin gene under the CMV promoter. The human NMUR2 cDNA was cloned into pcDNA3.1 and human NMUR1 was subcloned into pIRES-puro (Clontech, Mountain View, Calif.), after transfection cells were selected in media containing G418 and either hygromycin (NMUR2) or puromycin (NMUR1).
The NMU receptors signal primarily through Gαq/11 proteins; therefore calcium mobilization assays can be utilized for functional activity.
Stable cell lines expressing human and or rodent NMUR1 or human NMUR2 receptors were plated at a density of 12,000 cells per well overnight on poly-lysine coated 384-well black-walled plates. The following day, the media was removed from the plates and the cells were subsequently loaded with Fluo-3 (Molecular Probes), a calcium sensitive dye, diluted in FLIPR buffer (1× Hank's buffered saline containing 20 mM HEPES, 0.1% BSA, 2.5 mM probenecid (Sigma) and 1.6 mM TR40). All reagents are from Invitrogen unless otherwise noted. Peptide stocks were resuspended in DMSO at a stock concentration of 2 mM and diluted in FLIPR buffer on the day of the experiment to a 4 μM working stock solution.
After a 90 minute incubation at room-temperature, cell plates were loaded onto a FLIPR (Molecular Devices) to monitor cellular fluorescence (excitation=488 nm; emission=540 nm) before and after compound/peptide addition. Eight to twelve point dose responses were tested on NMUR-expressing cell lines using FLIPR with 1 μM peptide as the highest dose. The response after peptide addition was taken as the maximum fluorescence units minus the fluorescence immediately prior to stimulation for each well. EC50 values were calculated using GraphPad Prism (San Diego, Calif.) software.
In vitro responses of Neuromedin U receptor agonists (NMU1 to NMU25) in the FLIPR assay for human (Table 3), mouse (Table 4) and rat (Table 5) NMUR1 and NMUR2. EC50s are reported in nM values. Percent activity refers to the maximum response at 1 μM compared to the hNMU-25 response at the same concentration. NT=not tested.

[2] = biological target: hNMUR2 (Homo sapiens, UniProt Q9GZQ4); assay: 125I-hNMU-25 binding assay, human NMUR2 membranes; set-up: expressed in transfected cells; host or cells: HEK-293 FLP-In cells (pcDNA5); HEK-293/aeq17 lines (pcDNA3.1) were also made; % inhibition of NMU-25 binding / % Activity: concentration or dose not given beside the values; settings: human R2
Chain of hNMUR2 (Q9GZQ4 whole entry): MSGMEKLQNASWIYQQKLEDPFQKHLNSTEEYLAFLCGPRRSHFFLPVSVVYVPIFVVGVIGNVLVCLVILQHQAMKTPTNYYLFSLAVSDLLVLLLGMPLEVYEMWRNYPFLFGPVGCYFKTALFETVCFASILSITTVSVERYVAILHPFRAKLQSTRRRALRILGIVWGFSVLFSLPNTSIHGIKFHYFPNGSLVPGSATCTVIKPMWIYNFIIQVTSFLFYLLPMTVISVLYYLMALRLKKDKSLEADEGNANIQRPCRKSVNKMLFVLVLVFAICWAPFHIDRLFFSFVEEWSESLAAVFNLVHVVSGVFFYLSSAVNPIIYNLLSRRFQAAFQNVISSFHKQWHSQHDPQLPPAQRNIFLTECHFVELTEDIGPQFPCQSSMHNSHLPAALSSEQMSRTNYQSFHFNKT
Procedure: Confluent cell monolayers expressing NMU receptors (the HEK cells described above) were harvested with phosphate buffered saline, collected by centrifugation, and resuspended in membrane buffer (50 mM TrisCl pH 7.4, 5 mM MgCl2, 1× Protease Inhibitor Cocktail, 10 μM phosphoramidon). After the cell pellet was homogenized, the solution was centrifuged at 18,000 rpm for 20 minutes at 4° C. The pellet was resuspended in membrane buffer to yield a final concentration of 0.5-5 μg/μL of membrane and stored at −80° C.
Experiments were performed in assay buffer (25 mM TrisCl, pH 7.4, 10 mM MgCl2, 2 mM EDTA, 1× Protease Inhibitor Cocktail, 100 μg/mL Bacitricin, 10 μM phosphoramidon) in 200 μL volumes in a 96-well format using 2-5 μg of membrane and 0.1 nM ^125I-hNMU-25 (about 12,000 cpm/well). For non-specific binding, 1 μM hNMU-25 was added. About 5 μL of peptides were added to measure antagonist activity, and the entire reaction was incubated at room temperature with shaking for 80 minutes. The reaction was terminated by rapid filtration through 0.3% poly-ethylenimine presoaked Millipore 96-well filter plates and washed with ice-cold buffer (5 mM TrisCl pH 7.4, 10 mM MgCl2, 2.5 mM EDTA, 0.04% Triton X-100). Plates were air-dried overnight at room temperature and recovered radioactivity was determined by standard scintillation counting. IC50 values were determined using GraphPad Prism software.
Concentration-response curves and radioligand-binding data were fitted using Prism (GraphPad Software). Results are summarized below in Tables 8 and 9.

CCN1C(=O)CC(SC[C@H](NC(C)=O)C(=O)N[C@@H](Cc2ccccc2)C(=O)N[C@@H](CCCNC(=N)N)C(=O)N[C@H](C(=O)N[C@@H](CC(=O)O)C(=O)N[C@@H](CCC(=O)O)C(=O)N[C@@H](CCC(=O)O)C(=O)N[C@@H](Cc2ccccc2)C(=O)N[C@@H](CCC(N)=O)C(=O)N[C@@H](CO)C(=O)N2CCC[C@H]2C(=O)N[C@@H](Cc2ccccc2)C(=O)N[C@@H](C)C(=O)N[C@@H](CO)C(=O)N[C@@H](CCC(N)=O)C(=O)N[C@@H](CO)C(=O)N[C@@H](CCCNC(=N)N)C(=O)NCC(=O)N[C@@H](Cc2ccc(O)cc2)C(=O)N[C@@H](Cc2ccccc2)C(=O)N[C@H](C)C(=O)N[C@@H](Cc2c[nH]c3ccccc23)C(=O)N[C@@H](CCCNC(=N)N)C(=O)N2CCC[C@H]2C(=O)N[C@@H](CCCNC(=N)N)C(=O)N[C@@H](CC(N)=O)C(N)=O)C(C)C)C1=O (stereo partly shown) [NMU13] (Ac-C(Succinimide(1-Et,3-yl))FRVDEEFQSPFASQSRGYF[dA]WRPRN-NH2)
% Activity ([1]; functional, rat R1-TTG, relative to native hNMU responses): 94% | % Activity ([1]; maximum response at 1 μM compared to hNMU-25, rat NMUR1-TTG): 94.6% | IC50 ([2]; binding): > 1000 nM | % inhibition of NMU-25 binding [2]: 48%
